# Results published in patent US8450324B2, “Crystalline base of trans-1-((1R,3S)-6-chloro-3-phenylindan-1-yl)-3,3-dimethylpiperazine” (H. Lunbeck A/S, priority 2005, dated 2013).
# How the values were obtained:
# [1] = system: pigs sensitized to haloperidol; assay: dystonia in pigs sensitized to haloperidol; format: in vivo
# QT interval = details: rabbit model; as described in PCT/DK04/000546; cited from earlier work
# dopamine D2 receptors = dopamine D2 receptors (Homo sapiens, UniProt P14416); details: as described in PCT/DK04/000546; cited from earlier work
# dopamine D1 receptors = dopamine D1 receptors (Homo sapiens, UniProt P21728); details: as described in PCT/DK04/000546; cited from earlier work
# CYP2D6 = CYP2D6 (Homo sapiens, UniProt P10635); details: as described in PCT/DK04/000546; cited from earlier work
# [2] = target: dopamine (DA) D1 receptors (Homo sapiens, UniProt P21728); details: as described in PCT/DK04/000546; cited from earlier work
# [3] = target: serotonin 5-HT2a receptors (Homo sapiens, UniProt P28223); details: as described in PCT/DK04/000546; cited from earlier work
# DA D2 receptors = DA D2 receptors (Homo sapiens, UniProt P14416); details: as described in PCT/DK04/000546; cited from earlier work
# alfa1 adrenoceptors = details: as described in PCT/DK04/000546; cited from earlier work
# Chain of serotonin 5-HT2a receptors (P28223 whole entry): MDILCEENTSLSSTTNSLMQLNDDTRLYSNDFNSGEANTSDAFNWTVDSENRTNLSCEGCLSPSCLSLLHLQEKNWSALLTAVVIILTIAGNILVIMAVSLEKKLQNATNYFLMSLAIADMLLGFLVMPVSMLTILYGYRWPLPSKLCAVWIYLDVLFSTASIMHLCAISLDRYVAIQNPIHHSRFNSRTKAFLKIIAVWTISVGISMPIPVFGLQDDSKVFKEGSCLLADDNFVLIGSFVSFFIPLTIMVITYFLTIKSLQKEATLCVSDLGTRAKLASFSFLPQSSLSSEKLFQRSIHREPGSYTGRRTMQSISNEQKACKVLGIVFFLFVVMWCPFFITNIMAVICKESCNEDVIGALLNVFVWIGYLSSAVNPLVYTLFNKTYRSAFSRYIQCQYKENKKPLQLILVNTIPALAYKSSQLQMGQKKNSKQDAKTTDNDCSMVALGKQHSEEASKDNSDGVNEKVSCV
# Chain of DA D2 receptors (P14416 whole entry): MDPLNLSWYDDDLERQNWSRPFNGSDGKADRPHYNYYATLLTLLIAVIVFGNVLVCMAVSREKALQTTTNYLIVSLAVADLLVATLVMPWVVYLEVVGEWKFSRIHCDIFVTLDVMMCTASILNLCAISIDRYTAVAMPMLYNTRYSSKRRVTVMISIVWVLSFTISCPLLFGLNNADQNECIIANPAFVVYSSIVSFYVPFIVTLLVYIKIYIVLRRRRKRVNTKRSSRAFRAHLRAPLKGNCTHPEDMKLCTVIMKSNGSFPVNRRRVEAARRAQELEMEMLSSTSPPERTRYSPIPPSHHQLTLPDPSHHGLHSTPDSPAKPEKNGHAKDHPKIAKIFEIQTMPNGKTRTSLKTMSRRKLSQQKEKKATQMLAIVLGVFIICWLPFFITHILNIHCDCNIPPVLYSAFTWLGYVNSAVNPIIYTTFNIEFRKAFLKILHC
# Chain of dopamine D2 receptors (P14416 whole entry): as above
# Chain of CYP2D6 (P10635 whole entry): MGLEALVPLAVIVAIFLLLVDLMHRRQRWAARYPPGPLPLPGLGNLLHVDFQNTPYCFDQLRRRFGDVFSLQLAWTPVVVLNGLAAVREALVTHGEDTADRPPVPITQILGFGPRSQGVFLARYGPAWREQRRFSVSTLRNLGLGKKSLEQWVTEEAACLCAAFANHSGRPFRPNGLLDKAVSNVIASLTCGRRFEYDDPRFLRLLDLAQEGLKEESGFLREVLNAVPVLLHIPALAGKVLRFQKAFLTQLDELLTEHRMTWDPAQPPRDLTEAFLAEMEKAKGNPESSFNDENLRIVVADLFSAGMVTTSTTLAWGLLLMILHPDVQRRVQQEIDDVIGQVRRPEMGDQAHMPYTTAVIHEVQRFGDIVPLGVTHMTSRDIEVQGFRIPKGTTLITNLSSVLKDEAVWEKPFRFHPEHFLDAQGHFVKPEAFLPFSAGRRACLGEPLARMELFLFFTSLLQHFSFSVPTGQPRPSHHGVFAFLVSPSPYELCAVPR
# Chain of dopamine D1 receptors (P21728 whole entry): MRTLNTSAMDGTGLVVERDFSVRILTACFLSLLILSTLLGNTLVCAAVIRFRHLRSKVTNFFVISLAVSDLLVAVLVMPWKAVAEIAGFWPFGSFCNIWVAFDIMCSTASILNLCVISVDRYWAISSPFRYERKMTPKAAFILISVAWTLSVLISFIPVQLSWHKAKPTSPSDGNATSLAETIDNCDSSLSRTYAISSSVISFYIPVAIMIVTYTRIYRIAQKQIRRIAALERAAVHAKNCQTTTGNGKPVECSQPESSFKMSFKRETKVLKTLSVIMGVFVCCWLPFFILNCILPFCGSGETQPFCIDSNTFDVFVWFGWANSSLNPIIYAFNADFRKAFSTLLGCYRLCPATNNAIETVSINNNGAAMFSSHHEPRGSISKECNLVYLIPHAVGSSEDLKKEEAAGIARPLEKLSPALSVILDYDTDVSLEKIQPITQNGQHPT
# Chain of dopamine (DA) D1 receptors (P21728 whole entry): as above
compound,measurement,setting,value
"CC1(C)CN([C@@H]2C[C@@H](c3ccccc3)c3ccc(Cl)cc32)CCN1 [Compound I, trans-1-((1R,3S)-6-chloro-3-phenylindan-1-yl)-3,3-dimethylpiperazine]",induction of dystonia (EPS liability),[1],did not induce dystonia
same,effect on the QT interval,QT interval,relatively low effect
same,functional activity at dopamine D2 receptors,dopamine D2 receptors,antagonist
same,functional activity at dopamine D1 receptors,dopamine D1 receptors,antagonist
same,inhibition of CYP2D6,CYP2D6,relatively weak inhibitor
same,affinity for dopamine (DA) D1 receptors,[2],high affinity
same,functional activity at serotonin 5-HT2a receptors,[3],antagonist
same,affinity for DA D2 receptors,DA D2 receptors,high affinity
same,affinity for alfa1 adrenoceptors,alfa1 adrenoceptors,high affinity
